Laboratory results reported in EP2955191A1, “Compound, composition and method for treating and/or ameoliorating kidney disease” (Trineo Biotechnology Co. Ltd, priority 2014, dated 2015).

What was measured:
[1] = tested on: MDCK cells; assay: Cisplatin induced in vitro kidney cell apoptosis (mitochondria membrane potential, DiOC6 staining); assay type: cell-based, canine; conditions: given after 50 µM cisplatin for 4 hrs, FIG 1A
Experimental: Madin-Darby canine kidney (MDCK) cells (1.5 x 10^5 cells/mL) were cultured and maintained in Dulbecco's modified Eagle medium (DMEM) supplemented with 10% fetal bovine serum (FBS), 100 units/mL penicillin, […] streptomycin, 2mM L-glutamine, non-essential amino acids and sodium pyruvate, and maintained in 5% CO2 at 37 °C until reached 80% confluence, then were subject to cell passages.
MDCK cells were cultured in according to procedures described in the "Materials and Methods" section. To start the experiment, MDCK cells were first incubated with 50 µM cisplatin for 4 hrs, then various concentrations of the compound of formula (I) (50µg/mL or 100 µg/mL) or the YKII-10 composition of example 1.2 (25 to 100 µg/mL) were given to cisplatin-treated cells and further incubated for another 24 hrs. Mitochondria membrane potentials were then measured by staining the live cells with fluorescent dyes (e.g., 50 nM DiOC6), in which 50 nM DiOC6 were added to cells and incubated at 37 °C for 30 min. The cells were then washed twice with phosphate buffer solution before subjecting to microscopy analysis using the inverted fluorescent microscope. […] Results are illustrated in FIGs 1A and 1B.

[2] = tested on: Blb/c mice; assay: Lipopolysaccharide (LPS) induced in vivo kidney inflammation (urine protein); conditions: oral 100 mg/Kg; LPS 2.5 mg/Kg/day i.p. for 5 days; urine on fifth and tenth day; FIG 3
Experimental: Blb/c mice were kept in pathogen-free environment under 12:12 light-dark cycle with food (laboratory rodent diet 5001 purchased from PMI Nutrition International Inc. MO, USA) and water (i.e., distilled water) provided ad libitum, ambient temperature and relative humidity were respectively set at 22±3 °C and 50±20%. All procedures involving animal studies of the present disclosure comply with the "Guideline for the Care and Use of Laboratory Animals" issued by The Chinese-Taipei Society of Laboratory Animal Sciences.
In this example, to evaluate the therapeutic or prophylactic function of the compositon of example 1.2, animals were first injected intraperitoneally with lipopolysaccharide (LPS) to induce in vivo kidney inflammation before being subect to the treatment of the compositon of example 1.2.
Blb/c mice (6 weeks old) were randomly assigned to two groups, and injected intraperitoneally with lipopolysaccharide (LPS, 2.5 mg/Kg/day) for 5 consecutive days so as to induce kidney inflammation. […] Unine sampls were respectively collected on the fifth and the tenth day after the experiment started, and analyzed for the level of urine protein therein. […]

C[C@H](CCC(=O)O)[C@H]1C[C@H](O)[C@@]2(C)C3=C(C(=O)C[C@]12C)[C@@]1(C)CCC(=O)C(C)(C)[C@@H]1C[C@@H]3O [compound of formula (I)]
reversing cisplatin-induced apoptosis of MDCK cell ([1]; 50µg/mL or 100 µg/mL for 24 hrs): capable of reversing | recovery on the membrane potential ([1]; 100 µg/mL for 24 hrs, MDCK cells): about 80% | urine protein level [2]: effective in reducing
